Earlier results in patent US20160158203A1, “METHODS OF TREATMENT WITH BIOAVAILABLE COMPOSITIONS OF METAXALONE COMPRISING NONVOLATILE LIQUIDS” (priority 2004, published 2016).

Settings: as reviewed in U.S. Pat. Nos. 6,407,128 and 6,683,102

- Aqueous solubility (description): essentially water-insoluble
Compound: Cc1cc(C)cc(OCC2CNC(=O)O2)c1 (stereo not shown) [metaxalone, 5-[(3,5-dimethylphenoxy)methyl]-2 oxazolidinone]
